In ChEMBL document CHEMBL5360655, “Design, Synthesis, and Biological Evaluation of Novel P2X7 Receptor Antagonists for the Treatment of Septic Acute Kidney Injury” (J Med Chem, 2023):
Activity calls are given as the source filed them. The rule behind the calls is not given here.

How the values were obtained:
[1] = molecular target: T1, P2X purinoceptor 7 (Homo sapiens) (UniProt Q99572); experiment: Antagonist activity at human P2X7 receptor expressed in HEK293 cells assessed as inhibition of ATP-induced receptor pore formation at 10 uM by propidium iodide dye uptake based fluorescence analysis; assay type: cell-based; details: filed as antagonist
T1 sequence (whole entry): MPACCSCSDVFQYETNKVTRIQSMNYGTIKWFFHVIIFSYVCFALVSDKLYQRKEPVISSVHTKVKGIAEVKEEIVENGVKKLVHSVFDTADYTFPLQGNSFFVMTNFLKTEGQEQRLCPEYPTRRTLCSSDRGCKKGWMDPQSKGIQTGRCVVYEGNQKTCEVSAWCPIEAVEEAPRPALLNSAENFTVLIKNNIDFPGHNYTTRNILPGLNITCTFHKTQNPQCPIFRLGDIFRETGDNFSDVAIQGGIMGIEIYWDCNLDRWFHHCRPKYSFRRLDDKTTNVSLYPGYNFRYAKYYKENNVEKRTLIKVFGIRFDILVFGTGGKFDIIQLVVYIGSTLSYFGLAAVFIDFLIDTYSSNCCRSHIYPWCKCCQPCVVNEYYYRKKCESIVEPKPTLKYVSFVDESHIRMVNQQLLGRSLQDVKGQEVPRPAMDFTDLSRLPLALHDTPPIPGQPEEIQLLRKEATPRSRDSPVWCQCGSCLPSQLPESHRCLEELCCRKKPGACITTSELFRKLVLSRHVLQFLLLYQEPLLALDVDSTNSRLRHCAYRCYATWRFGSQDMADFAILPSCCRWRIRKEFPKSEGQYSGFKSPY

[2] = molecular target: T2, P2X purinoceptor 7 (Mus musculus) (UniProt Q9Z1M0); experiment: Antagonist activity at mouse P2X7 receptor expressed in HEK293 cells assessed as inhibition of ATP-induced receptor pore formation at 10 uM by propidium iodide dye uptake based fluorescence analysis; assay type: cell-based; details: filed as antagonist
T2 sequence (whole entry): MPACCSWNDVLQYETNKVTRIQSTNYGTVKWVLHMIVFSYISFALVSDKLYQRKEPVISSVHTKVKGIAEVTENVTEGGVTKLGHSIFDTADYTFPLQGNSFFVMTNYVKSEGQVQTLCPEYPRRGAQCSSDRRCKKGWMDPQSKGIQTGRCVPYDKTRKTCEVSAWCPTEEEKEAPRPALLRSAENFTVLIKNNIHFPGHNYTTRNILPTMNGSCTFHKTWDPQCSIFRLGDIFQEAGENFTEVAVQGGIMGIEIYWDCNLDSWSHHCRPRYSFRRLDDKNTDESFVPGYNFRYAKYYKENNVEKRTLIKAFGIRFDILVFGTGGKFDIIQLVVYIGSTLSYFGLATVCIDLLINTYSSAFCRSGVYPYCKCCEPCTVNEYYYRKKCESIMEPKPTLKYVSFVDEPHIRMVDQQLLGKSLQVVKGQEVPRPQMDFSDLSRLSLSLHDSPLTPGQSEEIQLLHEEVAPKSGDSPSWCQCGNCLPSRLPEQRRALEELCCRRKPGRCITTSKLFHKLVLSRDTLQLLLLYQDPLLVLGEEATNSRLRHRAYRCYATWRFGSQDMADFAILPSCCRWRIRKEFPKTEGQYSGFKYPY

[3] = molecular target: T1, P2X purinoceptor 7 (Homo sapiens); experiment: Antagonist activity at human P2X7 receptor expressed in HEK293 cells assessed as inhibition of ATP-induced receptor pore formation at 1 uM by propidium iodide dye uptake based fluorescence analysis; assay type: cell-based; details: filed as antagonist
[4] = molecular target: T2, P2X purinoceptor 7 (Mus musculus); experiment: Antagonist activity at mouse P2X7 receptor expressed in HEK293 cells assessed as inhibition of ATP-induced receptor pore formation at 1 uM by propidium iodide dye uptake based fluorescence analysis; assay type: cell-based; details: filed as antagonist
[5] = molecular target: T1, P2X purinoceptor 7 (Homo sapiens); experiment: Antagonist activity at human P2X7 receptor expressed in HEK293 cells assessed as inhibition of ATP-induced receptor pore formation at 200 nM by propidium iodide dye uptake based fluorescence analysis; assay type: cell-based
[6] = molecular target: T2, P2X purinoceptor 7 (Mus musculus); experiment: Antagonist activity at mouse P2X7 receptor expressed in HEK293 cells assessed as inhibition of ATP-induced receptor pore formation at 200 nM by propidium iodide dye uptake based fluorescence analysis; assay type: cell-based
[7] = Intrinsic clearance in human liver microsomes; assay type: ADME, Microsome; details: read-out: CLH
[8] = Half life in human liver microsomes; assay type: ADME, Microsome
[9] = Intrinsic clearance in mouse liver microsomes; assay type: ADME, Microsome; details: read-out: CLH
[10] = Half life in mouse liver microsomes; assay type: ADME, Microsome
P2X purinoceptor 7 [11] = molecular target: T3, P2X purinoceptor 7 (Homo sapiens, UniProt Q99572); experiment: Antagonist activity at P2X7 receptor in human THP-1 cells assessed as inhibition of ATP-induced IL-1beta secretion pretreated with LPS for 3 hrs followed by incubation with compound for 40 mins followed by treatment with ATP for 1 hr by ELISA; assay type: cell-based
T3 sequence (Q99572 whole entry): T1 sequence (whole entry)

[12] = AUC(0 to t) in BALB/c mouse at 10 mg/kg, iv measured for 24 hrs by LC-MS/MS analysis; assay type: ADME, organism-based; set-up: time 24 hrs, dose 10 mg/kg, route iv; details: in vivo
[13] = AUC(0 to t) in BALB/c mouse at 10 mg/kg, po measured for 24 hrs by LC-MS/MS analysis; assay type: ADME, organism-based; set-up: time 24 hrs, dose 10 mg/kg, route po; details: in vivo
[14] = Clearance in BALB/c mouse at 10 mg/kg, iv measured for 24 hrs by LC-MS/MS analysis; assay type: ADME, organism-based; details: in vivo
[15] = Clearance in BALB/c mouse at 10 mg/kg, po measured for 24 hrs by LC-MS/MS analysis; assay type: ADME, organism-based; details: in vivo
[16] = Cmax in BALB/c mouse at 10 mg/kg, iv measured for 24 hrs by LC-MS/MS analysis; assay type: ADME, organism-based; set-up: time 24 hrs, dose 10 mg/kg, route iv; details: in vivo
[17] = Cmax in BALB/c mouse at 10 mg/kg, po measured for 24 hrs by LC-MS/MS analysis; assay type: ADME, organism-based; set-up: time 24 hrs, dose 10 mg/kg, route po; details: in vivo
[18] = Half life in BALB/c mouse at 10 mg/kg, iv measured for 24 hrs by LC-MS/MS analysis; assay type: ADME, organism-based; details: in vivo
[19] = Half life in BALB/c mouse at 10 mg/kg, po measured for 24 hrs by LC-MS/MS analysis; assay type: ADME, organism-based; details: in vivo
[20] = Tmax in BALB/c mouse at 10 mg/kg, iv measured for 24 hrs by LC-MS/MS analysis; assay type: ADME, organism-based; details: in vivo
[21] = Tmax in BALB/c mouse at 10 mg/kg, po measured for 24 hrs by LC-MS/MS analysis; assay type: ADME, organism-based; details: in vivo
[22] = Oral bioavailability in BALB/c mouse at 10 mg/kg measured for 24 hrs by LC-MS/MS analysis; assay type: ADME, organism-based; details: in vivo
Mus musculus [23] = experiment: Reno-protective activity against LPS-induced acute kidney injury C57BL/6J mouse model assessed as decrease in serum […] level at 10 mg/kg, ip administered twice at 30 mins prior to LPS challenge and 8 hrs post-LPS challenge and measured at 16 hrs post-LPS challenge; assay type: functional, organism-based; details: time 16.5 hrs
Mus musculus [24] = experiment: Reno-protective activity against LPS-induced acute kidney injury C57BL/6J mouse model assessed as decrease in BUN level at 10 mg/kg, ip administered twice at 30 mins prior to LPS challenge and 8 hrs post-LPS challenge and measured at 16 hrs post-LPS challenge; assay type: functional, organism-based; details: time 16.5 hrs
P2X purinoceptor 7 [25] = molecular target: T3, P2X purinoceptor 7; experiment: Antagonist activity at human P2X7 receptor expressed in HEK293 cells assessed as inhibition of ATP-induced receptor pore formation by propidium iodide dye uptake based fluorescence analysis; assay type: cell-based
P2X purinoceptor 7 [26] = molecular target: T4, P2X purinoceptor 7 (Mus musculus, UniProt Q9Z1M0); experiment: Antagonist activity at mouse P2X7 receptor expressed in HEK293 cells assessed as inhibition of ATP-induced receptor pore formation by propidium iodide dye uptake based fluorescence analysis; assay type: cell-based
T4 sequence (Q9Z1M0 whole entry): T2 sequence (whole entry)

HEK293 [27] = experiment: Cytotoxicity against human HEK293 cells transfected with human P2X7 receptor assessed as effect on cell viability at 1 to 4 uM incubated for 2 hrs by CCK8 assay; assay type: toxicity, cell-based; details: hek293, 2 h, dose 1-4 µM
HEK293 [28] = experiment: Cytotoxicity against human HEK293 cells transfected with mouse P2X7 receptor assessed as effect on cell viability at 1 to 4 uM incubated for 2 hrs by CCK8 assay; assay type: toxicity, cell-based; details: hek293, 2 h, dose 1-4 µM
THP-1 = experiment: Cytotoxicity against human THP-1 cells assessed as effect on cell viability at 1 to 4 uM incubated for 2 hrs by CCK8 assay; assay type: toxicity, cell-based; details: thp-1, 2 h, dose 1-4 µM
[29] = AUC(0 to t) in BALB/c mouse at 10 mg/kg, ip measured for 24 hrs by LC-MS/MS analysis; assay type: ADME, organism-based; set-up: dose 10 mg/kg, time 24 hrs, route ip; details: in vivo
[30] = Clearance in BALB/c mouse at 10 mg/kg, ip measured for 24 hrs by LC-MS/MS analysis; assay type: ADME, organism-based; details: in vivo
[31] = Cmax in BALB/c mouse at 10 mg/kg, ip measured for 24 hrs by LC-MS/MS analysis; assay type: ADME, organism-based; set-up: dose 10 mg/kg, time 24 hrs, route ip; details: in vivo
[32] = Half life in BALB/c mouse at 10 mg/kg, ip measured for 24 hrs by LC-MS/MS analysis; assay type: ADME, organism-based; details: in vivo
[33] = Tmax in BALB/c mouse at 10 mg/kg, ip measured for 24 hrs by LC-MS/MS analysis; assay type: ADME, organism-based; details: in vivo

Structure (SMILES) | inhibition [3] [%] | inhibition [4] [%] | inhibition ([5]; filed as antagonist) [%] | inhibition ([6]; filed as antagonist) [%] | CLint scaled [7] [L/h/kg] | half-life [8] [h] | CLint scaled [9] [L/h/kg] | half-life [10] [h] | IC50 (P2X purinoceptor 7 [11]) [µM] | AUC(0-t) at 24 h [12] [µg·h/mL] | AUC(0-t) at 24 h [13] [µg·h/mL] | clearance [14] [L/h/kg] | CL/F [15] [L/h/kg] | Cmax [16] [µg/mL] | Cmax [17] [µg/mL] | half-life [18] [h] | half-life [19] [h] | Tmax [20] [h] | IC50 (P2X purinoceptor 7 [25]) [µM] | IC50 (P2X purinoceptor 7 [26]) [µM] | further results
O=C(NCC1(N2CCN(c3ccccc3)CC2)CCOCC1)c1cccnc1Sc1ccccc1 | 95.2 | 92 | 93.8 | 87.3 | 2.45 | 0.709 | 5.29 | 1.03 | < 0.03 | 0.31 | 0.155 | 32.3 | 64.6 | 0.516 | 0.27 | 0.77 | 0.8 | 0.08 |  |  | inhibition [1]: 92%; inhibition [2]: 89%; Tmax [21]: 0.08 h; bioavailability [22]: 49.9%; Activity (Mus musculus [23]): Active; Activity (Mus musculus [24]): Active
CS(=O)(=O)c1ccc(-c2nc(C(=O)NCc3cn(-c4cc(Cl)ccn4)nn3)cs2)cc1 | 68 | 99.5 | 42.1 | 105 | < 0.72 | > 2 | < 0.72 | > 2 | 0.358 | 5.08 | 4.39 | 1.99 | 2.45 | 3.04 | 0.776 | 1.96 | 2.29 | 0.08 | 0.147 | 0.0362 | Activity (HEK293 [27]): Non-Toxic; Activity (HEK293 [28]): Non-Toxic; Activity (THP-1): Non-Toxic; Tmax [21]: 2 h; bioavailability [22]: 86.4%; AUC(0-t) at 24 h [29]: 9.93 µg·h/mL; CL/F [30]: 1.02 L/h/kg; Cmax [31]: 3.65 µg/mL; half-life [32]: 3.94 h; Tmax [33]: 0.38 h; Activity (Mus musculus [23]): Active; Activity (Mus musculus [24]): Active
COc1ccc(-c2ccc(Cl)c(C(=O)NCc3cn(-c4cc(Cl)ccn4)nn3)c2)cc1OC | 59.2 | 51 |  |  | 1.07 | 1.63 | 12.9 | 0.421 |  |  |  |  |  |  |  |  |  |  | 0.285 | 1.79 | inhibition [5]: 35.7%; inhibition [6]: inactive
CS(=O)(=O)Nc1cccc(-c2ccc(Cl)c(C(=O)NCc3cn(-c4cc(Cl)ccn4)nn3)c2)c1 | 76.9 | 74.7 |  |  | 1.84 | 0.947 | 3.92 | 1.39 |  |  |  |  |  |  |  |  |  |  | 0.0914 | 1.86 | inhibition [5]: 30.8%; inhibition [6]: 32.8%
CS(=O)(=O)c1ccc(-c2ncc(C(=O)NCc3cn(-c4cc(Br)ccn4)nn3)s2)cc1 | 100 | 114 | 56.9 | 114 | < 0.72 | > 2 | < 0.72 | > 2 | 0.289 | 40.9 | 7.14 | 0.22 | 1.58 | 3.41 | 1.01 | 7.87 | 2.66 | 1.39 | 0.166 | 0.0122 | Activity (HEK293 [27]): Non-Toxic; Activity (HEK293 [28]): Non-Toxic; Activity (THP-1): Non-Toxic; Tmax [21]: 2 h; bioavailability [22]: 17.5%; AUC(0-t) at 24 h [29]: 24.4 µg·h/mL; CL/F [30]: 0.41 L/h/kg; Cmax [31]: 3.66 µg/mL; half-life [32]: 8.17 h; Tmax [33]: 4 h; Activity (Mus musculus [23]): Active; Activity (Mus musculus [24]): Active
